Assay results as given in patent US6737383B1, “Herbicidal oxadiazolidines” (priority 1999, dated 2004).

Columns and labels:
bedstraw = experiment: Test B pre/postemergence bedstraw; type: in vivo, Galium aparine; settings: Postemergence, Rate 1000 g/ha; scale 0 to 10 (0 no effect, 10 complete control)
Summary of the method: (§1)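 Test chemicals in a non-phytotoxic solvent mixture with surfactant were sprayed preemergence onto planted seeds and postemergence onto plants 2 to 18 cm tall (1- to 4-leaf stage). After twelve to sixteen days in a greenhouse, injury was visually rated against untreated controls from 0 (no effect) to 10 (complete control).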

blackgrass = experiment: Test B pre/postemergence blackgrass; type: in vivo, Alopecurus myosuroides; settings: for Blackgrass plant response rating: Postemergence; for Plant response rating, Blackgrass: Preemergence
Summary of the method: as §1

surinam grass = experiment: Test B pre/postemergence surinam grass; type: in vivo, Brachiaria decumbens; settings: for B. signalgrass plant response rating: Postemergence; for Plant response rating, B. signalgrass: Preemergence
Summary of the method: as §1

cocklebur = experiment: Test B pre/postemergence cocklebur; type: in vivo, Xanthium strumarium; settings: for Cocklebur plant response rating: Postemergence; for Plant response rating, Cocklebur: Preemergence
Summary of the method: as §1

corn = experiment: Test B pre/postemergence corn; type: in vivo, Zea mays; settings: for Corn plant response rating: Postemergence; for Plant response rating, Corn: Preemergence
Summary of the method: as §1

crabgrass = experiment: Test B pre/postemergence crabgrass; type: in vivo, Digitaria sanguinalis; settings: for Crabgrass plant response rating: Postemergence; for Plant response rating, Crabgrass: Preemergence
Summary of the method: as §1

giant foxtail = experiment: Test B pre/postemergence giant foxtail; type: in vivo, Setaria faberii; settings: for Giant foxtail plant response rating: Postemergence; for Plant response rating, Giant foxtail: Preemergence
Summary of the method: as §1

morningglory = experiment: Test B pre/postemergence morningglory; type: in vivo, Ipomoea hederacea; settings: for Morningglory plant response rating: Postemergence; for Plant response rating, Morningglory: Preemergence
Summary of the method: as §1

pigweed = experiment: Test B pre/postemergence pigweed; type: in vivo, Amaranthus retroflexus; settings: for Redroot pigweed plant response rating: Postemergence; for Plant response rating, Redroot pigweed: Preemergence
Summary of the method: as §1

rape = experiment: Test B pre/postemergence rape; type: in vivo, Brassica napus; settings: for Rape plant response rating: Postemergence; for Plant response rating, Rape: Preemergence
Summary of the method: as §1

soybean = experiment: Test B pre/postemergence soybean; type: in vivo, Glycine max; settings: for Soybean plant response rating: Postemergence; for Plant response rating, Soybean: Preemergence
Summary of the method: as §1

sugar beet = experiment: Test B pre/postemergence sugar beet; type: in vivo, Beta vulgaris; settings: for Sugarbeets plant response rating: Postemergence; for Plant response rating, Sugarbeets: Preemergence
Summary of the method: as §1

velvetleaf = experiment: Test B pre/postemergence velvetleaf; type: in vivo, Abutilon theophrasti; settings: for Velvetleaf plant response rating: Postemergence; for Plant response rating, Velvetleaf: Preemergence
Summary of the method: as §1

wheat = experiment: Test B pre/postemergence wheat; type: in vivo, Triticum aestivum; settings: for Wheat plant response rating: Postemergence; for Plant response rating, Wheat: Preemergence
Summary of the method: as §1

wild oat = experiment: Test B pre/postemergence wild oat; type: in vivo, Avena fatua; settings: for Wild oats plant response rating: Postemergence; for Plant response rating, Wild oats: Preemergence
Summary of the method: as §1

purple nutsedge = experiment: Test B pre/postemergence purple nutsedge; type: in vivo, Cyperus rotundus; settings: for Nutsedge plant response rating: Postemergence; for Plant response rating, Nutsedge: Preemergence
Summary of the method: as §1

rice = experiment: Test B flood test rice; type: in vivo, Oryza sativa
Summary of the method: (§2)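 Plants were grown to the 2-leaf stage before treatment with test chemical, then held in a greenhouse for twelve to sixteen days. Injury was visually rated against untreated controls on a 0–10 scale, where 0 is no effect and 10 is complete control.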

smallflower flatsedge = experiment: Test B flood test smallflower flatsedge; type: in vivo, Cyperus difformis
Summary of the method: as §2

duck salad = experiment: Test B flood test duck salad; type: in vivo, Heteranthera limosa
Summary of the method: as §2

bamyardgrass = experiment: Test B flood test barnyardgrass; type: in vivo, Echinochloa crus-galli
Summary of the method: as §2

[1] = Rate 125 g/ha, scale of 0 to 10 where 0 is no effect and 10 is complete control
[2] = Rate 1000 g/ha, scale 0 to 10 (0 no effect, 10 complete control)
[3] = Rate 250 g/ha, scale 0 to 10 (0 no effect, 10 complete control)
[4] = Rate 500 g/ha, scale of 0 to 10 where 0 is no effect and 10 is complete control
[5] = Rate 250 g/ha, scale 0 to 10, 0 is no effect, 10 is complete control
[6] = Rate 500 g/ha, scale 0 to 10, 0 is no effect, 10 is complete control
[7] = Pre-emergence, Rate 1000 g/ha, scale 0 to 10 (0 no effect, 10 complete control)
[8] = Rate 125 g/ha, under heading Pre-emergence, flood test species, visual evaluation after twelve to sixteen days
[9] = Rate 250 g/ha, Pre-emergence (flood test species), scale 0 to 10, 0 is no effect, 10 is complete control
[10] = Rate 500 g/ha, Pre-emergence section of Table B, 0 to 10 scale (0 no effect, 10 complete control)

COC(=O)C(c1ccccc1)n1c(=O)on(C(=O)N(c2ccc(F)cc2)C(C)C)c1=O (centres unmarked) [Compound 677]
7: Plant response rating, Crabgrass (crabgrass; [4]) | Morningglory plant response rating (morningglory; [6]) | Soybean plant response rating (soybean; [2]) | Plant response rating, Sugarbeets (sugar beet; [2])
10: Plant response rating, Giant foxtail (giant foxtail; [4]) | Plant response rating, Giant foxtail (giant foxtail; [2])
1: Blackgrass plant response rating (blackgrass; [6]) | B. signalgrass plant response rating (surinam grass; [2]) | Cocklebur plant response rating (cocklebur; [2]) | Cocklebur plant response rating (cocklebur; [6]) | Soybean plant response rating (soybean; [5]) | Sugarbeets plant response rating (sugar beet; [2]) | Sugarbeets plant response rating (sugar beet; [6])
9: Plant response rating, B. signalgrass (surinam grass; [2]) | Plant response rating, Crabgrass (crabgrass; [2])
0: Bedstraw plant response rating (bedstraw) | Blackgrass plant response rating (blackgrass; [1]) | Plant response rating, Blackgrass (blackgrass; [1]) | Plant response rating, Blackgrass (blackgrass; [3]) | Plant response rating, Blackgrass (blackgrass; [4]) | Blackgrass plant response rating (blackgrass; [5]) | B. signalgrass plant response rating (surinam grass; [1]) | Plant response rating, B. signalgrass (surinam grass; [1]) | B. signalgrass plant response rating (surinam grass; [5]) | B. signalgrass plant response rating (surinam grass; [6]) | Cocklebur plant response rating (cocklebur; [1]) | Plant response rating, Cocklebur (cocklebur; [1]) | Plant response rating, Cocklebur (cocklebur; [3]) | Plant response rating, Cocklebur (cocklebur; [4]) | Cocklebur plant response rating (cocklebur; [5]) | Plant response rating, Cocklebur (cocklebur; [2]) | Corn plant response rating (corn; [1]) | Corn plant response rating (corn; [2]) | Plant response rating, Corn (corn; [1]) | Plant response rating, Corn (corn; [3]) | Plant response rating, Corn (corn; [4]) | Corn plant response rating (corn; [5]) | Corn plant response rating (corn; [6]) | Plant response rating, Corn (corn; [2]) | Crabgrass plant response rating (crabgrass; [1]) | Crabgrass plant response rating (crabgrass; [5]) | Giant foxtail plant response rating (giant foxtail; [1]) | Plant response rating, Morningglory (morningglory; [1]) | Plant response rating, Morningglory (morningglory; [4]) | Plant response rating, Morningglory (morningglory; [2]) | Rape plant response rating (rape; [1]) | Rape plant response rating (rape; [2]) | Plant response rating, Rape (rape; [1]) | Plant response rating, Rape (rape; [4]) | Rape plant response rating (rape; [5]) | Rape plant response rating (rape; [6]) | Soybean plant response rating (soybean; [1]) | Plant response rating, Soybean (soybean; [1]) | Plant response rating, Soybean (soybean; [4]) | Plant response rating, Soybean (soybean; [2]) | Sugarbeets plant response rating (sugar beet; [1]) | Plant response rating, Sugarbeets (sugar beet; [1]) | Plant response rating, Sugarbeets (sugar beet; [4]) | Sugarbeets plant response rating (sugar beet; [5]) | Velvetleaf plant response rating (velvetleaf; [1]) | Plant response rating, Velvetleaf (velvetleaf; [1]) | Plant response rating, Velvetleaf (velvetleaf; [4]) | Velvetleaf plant response rating (velvetleaf; [5]) | Plant response rating, Velvetleaf (velvetleaf; [2]) | Wheat plant response rating (wheat; [1]) | Wheat plant response rating (wheat; [2]) | Plant response rating, Wheat (wheat; [1]) | Plant response rating, Wheat (wheat; [4]) | Wheat plant response rating (wheat; [5]) | Wheat plant response rating (wheat; [6]) | Plant response rating, Wheat (wheat; [2]) | Wild oats plant response rating (wild oat; [1]) | Wild oats plant response rating (wild oat; [2]) | Plant response rating, Wild oats (wild oat; [1]) | Plant response rating, Wild oats (wild oat; [4]) | Wild oats plant response rating (wild oat; [5]) | Wild oats plant response rating (wild oat; [6]) | Nutsedge plant response rating (purple nutsedge; [1]) | Nutsedge plant response rating (purple nutsedge; [2]) | Plant response rating, Nutsedge (purple nutsedge; [1]) | Plant response rating, Nutsedge (purple nutsedge; [4]) | Nutsedge plant response rating (purple nutsedge; [5]) | Nutsedge plant response rating (purple nutsedge; [6]) | Plant response rating, Nutsedge (purple nutsedge; [2]) | Rice plant response rating (rice; [7]) | Rice plant response rating (0 to 10 scale, 0 is no effect, 10 is complete control) (rice; [8]) | Rice plant response rating (rice; [9]) | Rice plant response rating (rice; [10]) | S. Flatsedge plant response rating (smallflower flatsedge; [7]) | S. Flatsedge plant response rating (0 to 10 scale, 0 is no effect, 10 is complete control) (smallflower flatsedge; [8]) | S. Flatsedge plant response rating (smallflower flatsedge; [9]) | S. Flatsedge plant response rating (smallflower flatsedge; [10]) | Ducksalad plant response rating (duck salad; [7]) | Ducksalad plant response rating (0 to 10 scale, 0 is no effect, 10 is complete control) (duck salad; [8]) | Ducksalad plant response rating (duck salad; [9]) | Ducksalad plant response rating (duck salad; [10]) | Barnyardgrass plant response rating (bamyardgrass; [7]) | Barnyardgrass plant response rating (0 to 10 scale, 0 is no effect, 10 is complete control) (bamyardgrass; [8]) | Barnyardgrass plant response rating (bamyardgrass; [9]) | Barnyardgrass plant response rating (bamyardgrass; [10])
2: Giant foxtail plant response rating (giant foxtail; [5]) | Morningglory plant response rating (morningglory; [1]) | Redroot pigweed plant response rating (pigweed; [1]) | Soybean plant response rating (soybean; [6]) | Plant response rating, Wild oats (wild oat; [2])
4: Blackgrass plant response rating (blackgrass; [2]) | Plant response rating, Blackgrass (blackgrass; [2]) | Crabgrass plant response rating (crabgrass; [6]) | Giant foxtail plant response rating (giant foxtail; [6]) | Morningglory plant response rating (morningglory; [5]) | Redroot pigweed plant response rating (pigweed; [2]) | Plant response rating, Redroot pigweed (pigweed; [1])
3: Plant response rating, B. signalgrass (surinam grass; [3]) | Plant response rating, Crabgrass (crabgrass; [1]) | Redroot pigweed plant response rating (pigweed; [5]) | Redroot pigweed plant response rating (pigweed; [6]) | Plant response rating, Rape (rape; [2]) | Velvetleaf plant response rating (velvetleaf; [2]) | Velvetleaf plant response rating (velvetleaf; [6])
8: Plant response rating, Redroot pigweed (pigweed; [2])
6: Crabgrass plant response rating (crabgrass; [2]) | Plant response rating, Crabgrass (crabgrass; [3])
5: Plant response rating, B. signalgrass (surinam grass; [4]) | Giant foxtail plant response rating (giant foxtail; [2]) | Plant response rating, Giant foxtail (giant foxtail; [1])
